Laboratory results taken from US6130204A (Merck & Co., Inc., priority 1998, dated 2000).

Tests used:
[1] = system: LNCaP prostate tumor cells; assay: In vitro cytotoxicity of peptidyl derivatives of doxorubicin (Alamar Blue assay); format: cell-based, human; details: FIG. 4, cells incubated 3 days at 37° C.
Procedure: The cytotoxicities of the non-cleaveable oligopeptide-doxorubicin conjugates, prepared as described in Example 4, against a line of cells which is known to be killed by unmodified doxorubicin were assessed with an Alamar Blue assay. Specifically, cell cultures of LNCaP prostate tumor cells, which are a human metastatic prostate adenocarcinoma isolated from a needle biopsy of a lymph node (LNCaP.FGC: American Type Culture Collection, ATCC CRL 1740), or DuPRO cells in 96 well plates were diluted with medium containing various concentrations of a given conjugate (final plate well volume of 200 μl). The cells were incubated for 3 days at 37° C. and then 20 μl of Alamar Blue was added to the assay well. The cells were further incubated and the assay plates were read on a EL-310 ELISA reader at the dual wavelengths of 570 and 600 nm at 4 and 7 hours after addition of Alamar Blue. Relative percentage viability at the various concentration of conjugate tested was then calculated versus control (no conjugate) cultures. Cytotoxicities of unmodified doxorubicin and unmodified oligopeptide were also assessed.

Ac-SerTyrGln.vertline.SerSerSerThrGlu-amide
cleaved bond (free PSA): Gln-Ser

Ac-LysIleSerTyrGln.vertline.SerSer-amide
cleaved bond (free PSA): Gln-Ser

Ac-hArgTyrGln.vertline.SerSerSer(MeLeu)
cleaved bond (free PSA): Gln-Ser

Ac-AlaAsnGluIleSerTyrGln.vertline.SerAlaSerThrGlu-amide
cleaved bond (free PSA): Gln-Ser

Ac-AsnLysIleSerTyrGln.vertline.SerSer-amide
cleaved bond (free PSA): Gln-Ser

Ac-AlaSerTyrGln.vertline.SerSerThrGlu-amide
cleaved bond (free PSA): Gln-Ser

Ac-AlaAsnLysIleSerTyrGln.vertline.SerSerThrGlu-amide
cleaved bond (free PSA): Gln-Ser

Ac-hArg(Cha)Gln.vertline.SerSerSer(ethylester-Leu)
cleaved bond (free PSA): Gln-Ser

Ac-AlaSerTyrGln.vertline.SerSerLeu-amide
cleaved bond (free PSA): Gln-Ser

Ac-AlaAsnLysAlaSerTyrGln.vertline.SerAlaSerCys-amide
cleaved bond (free PSA): Gln-Ser

Ac-AlaAspLysAlaLysTyrGln.vertline.SerSer(Cha)-NHNH2
cleaved bond (free PSA): Gln-Ser

Ac-AlaAsnLysIleSerTyrGln.vertline.SerSerGlnThrGlu-amide
cleaved bond (free PSA): Gln-Ser

COc1cccc2c1C(=O)c1c(O)c3c(c(O)c1C2=O)C[C@@](O)(C(=O)CO)C[C@@H]3O[C@H]1C[C@H](N)[C@H](O)[C@H](C)O1 [doxorubicin]
EC50 [1]: 300 nM

Ac-AlaAsnSerTyrGln.vertline.SerSerSerThrGlu-amide
cleaved bond (free PSA): Gln-Ser

Ac-AlaAsnLysIleSerTyrGln.vertline.SerSerSerThrGlu-amide
cleaved bond (free PSA): Gln-Ser

Ac-AlaSerTyrGln.vertline.SerSerSerThrGlu-amide
cleaved bond (free PSA): Gln-Ser

Ac-SerTyrGln.vertline.SerSerThrGlu-amide
cleaved bond (free PSA): Gln-Ser

Ac-hArgTyrGln.vertline.SerSerSer(Ethylester-Leu)
cleaved bond (free PSA): Gln-Ser

Ac-AlaAsnLysIleSerTyrGln.vertline.SerSerLysThrGlu-amide
cleaved bond (free PSA): Gln-Ser

Ac-AlaAsnLysIleSerTyrTyr.vertline.SerAlaSerThrGlu-amide
cleaved bond (free PSA): Tyr-Ser

Ac-AlaAsnLysIleSerTyrGln.vertline.SerAlaLysThrGlu-amide
cleaved bond (free PSA): Gln-Ser

Ac-AlaAsnLysIleSerTyrGln.vertline.SerSerSerThrLeu
cleaved bond (free PSA): Gln-Ser

Ac-AlaAsnLysIleSerTyrGln.vertline.SerAlaSerThrGlu-amide
cleaved bond (free PSA): Gln-Ser

Ac-AlaAsnLysSerTyrGln.vertline.SerSerThrGlu-amide
cleaved bond (free PSA): Gln-Ser

Ac-AlaAsnLysAlaSerTyrGln.vertline.SerAlaSerThrGlu-amide
cleaved bond (free PSA): Gln-Ser

Ac-AlaAsnLysIleSerTyrGln.vertline.SerSerSerThrLeu-amide
cleaved bond (free PSA): Gln-Ser

AlaAsnLysIleSerTyrGln.vertline.SerSerSerThrGlu-amide
cleaved bond (free PSA): Gln-Ser

Ac-AlaAsnLysIleSerTyrTyr.vertline.SerSerSerThrGlu-amide
cleaved bond (free PSA): Tyr-Ser

Ac-AlaAsnLysIleSerTyrGln.vertline.SerThrGlu-amide
cleaved bond (free PSA): Gln-Ser
